The test deals with T1, protein tyrosine phosphatase 1B (PTP1B) (Homo sapiens, UniProt P18031).
T1 sequence (P18031 1-435): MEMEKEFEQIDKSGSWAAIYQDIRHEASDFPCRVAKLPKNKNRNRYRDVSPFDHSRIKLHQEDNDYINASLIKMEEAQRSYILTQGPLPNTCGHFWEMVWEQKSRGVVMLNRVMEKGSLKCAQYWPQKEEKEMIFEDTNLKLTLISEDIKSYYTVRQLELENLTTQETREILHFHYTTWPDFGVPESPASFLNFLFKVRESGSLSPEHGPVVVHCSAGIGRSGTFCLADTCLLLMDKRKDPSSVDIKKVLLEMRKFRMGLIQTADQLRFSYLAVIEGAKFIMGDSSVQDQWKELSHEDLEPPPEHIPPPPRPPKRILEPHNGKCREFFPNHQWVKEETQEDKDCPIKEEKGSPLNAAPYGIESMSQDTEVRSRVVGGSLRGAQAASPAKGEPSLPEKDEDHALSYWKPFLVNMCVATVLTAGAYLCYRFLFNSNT
Nature of the test: colorimetric pNPP hydrolysis assay with human recombinant PTP1B, dose-response. The class given is biochemical.

These results are taken from paper PMC3523387 (Planta medica, 2012).

As for ratanhiaphenol III [compound 9], the IC50 worked out at 20.2 µM.
